Results: patent publication US8143212B2 (Vicuron Pharmaceuticals Inc., priority 2002, dated 2012)
Converted amounts (≈) assume the structure as drawn. “And” between values parts separate entries of the source, which are not always exact repeats. Identical values can stand only once. Like-named read-outs stand apart in the source and are kept apart here.

How the values were obtained:
[1] = test system: E faecalis; assay: MIC, microbiological activity (Table 3); type: cell-based; conditions: read-out: MIC
[2] = test system: B subtilis; assay: MIC, microbiological activity (Table 3); type: cell-based; conditions: L 102 B subtilis ATCC; read-out: MIC
[3] = test system: C albicans; assay: MIC, microbiological activity (Table 3); type: cell-based; conditions: L 145 C albicans SKF2270; read-out: MIC
[4] = test system: skin and soft tissue infections (SSTI); assay: Phase II SSTI trial: clinical response; type: in vivo, human
Description: This randomized, controlled study evaluated the safety and efficacy of two dose regimens of dalbavancin.
(§1) There were 62 patients randomized into the study; all received at least one dose of study medication. Four study populations were evaluated for safety and efficacy and were defined as follows: The intent-to-treat (ITT) population included all patients who received at least one dose of study drug (all randomized study subjects).
The effectiveness of the three treatment regimens was determined by assessing the patients' clinical response and the documented or presumed microbiological responses. The primary efficacy endpoint was clinical response at the follow-up visit for the clinically evaluable population. Clinical response, for both EOT and FU visits, was categorized as success (cure or improvement) or failure (including indeterminate results). Patients classified as successes must not have received additional systemic antibacterial treatment for their infection. Failure was defined as persistence of one or more local or systemic signs and symptoms of SSTI such that treatment with new or additional systemic antibacterial agents was required for the SSTI.

[5] = test system: Gram-positive pathogen; assay: Phase II SSTI trial: microbiological response; type: in vivo, human; conditions: for Success Rate by Pathogen: Microbiologically ITT Population at FU; for eradication/presumed eradication rate, all organisms: FU assessment
Description: as §1
Microbiological outcome, a secondary efficacy variable, was assessed in the subpopulation of patients who had microbiologically documented SSTI (i.e., at least one identified baseline pathogen). A microbiologic response was assessed for each Gram-positive pathogen identified at baseline (i.e., eradication, presumed eradication, persistence, presumed persistence). For patients for whom follow-up cultures were not performed, the microbiologic responses for baseline pathogens were presumed on the basis of the clinical response. Microbiologic response by patient at the EOT and FU visits was graded as success (i.e., all Gram-positive organisms eradicated or presumed eradicated) or failure (i.e., at least one Gram-positive organism persisted or presumed to have persisted, multiple pathogens with partial eradication). At both the EOT and FU visits, colonization and superinfection were assessed. At the FU visit, a patient's bacteriological response could also include recurrence.

[6] = Pharmacokinetics and renal excretion in healthy subjects, single 1000 mg IV; type: in vivo, human; conditions: for t1/2: healthy subjects, single 1000 mg IV
Description: Blood samples were drawn into heparinized tubes and centrifuged. Plasma was separated and stored frozen at −20° C. until time of assay. Plasma and urine samples were assayed for dalbavancin using validated LC/MS/MS methods. […] The peak concentration (Cmax) values were obtained directly from the observed data. The area under the plasma concentration-time curve (AUC) was calculated using the linear trapezoidal rule. Clearance (CL) was computed as dose/AUC. The elimination half life (t1/2) was estimated by linear regression of the log-linear portion of the log concentration versus time curve. Estimates of the volume of distribution (VZ) was calculated using the regression parameters, while the volume of distribution at steady state (VSS) was calculated from the area under the first moment curve (AUMC) multiplied by the dose and divided by AUC. The cumulative amount of dalbavancin excreted in urine was determined as the integrand of the urine excretion rate (AURC). CLR, or renal clearance, was calculated as the ratio: CLR=AURC/AUC.

[7] = in vivo
Description: Safety was evaluated by the collection and analysis of data on adverse events (AEs), clinical laboratory tests, physical examinations, vital signs, and ECGs.

[8] = biological target: human albumin (Homo sapiens, UniProt P02768); conditions: pH 7.4
Sequence of human albumin (P02768 25-609): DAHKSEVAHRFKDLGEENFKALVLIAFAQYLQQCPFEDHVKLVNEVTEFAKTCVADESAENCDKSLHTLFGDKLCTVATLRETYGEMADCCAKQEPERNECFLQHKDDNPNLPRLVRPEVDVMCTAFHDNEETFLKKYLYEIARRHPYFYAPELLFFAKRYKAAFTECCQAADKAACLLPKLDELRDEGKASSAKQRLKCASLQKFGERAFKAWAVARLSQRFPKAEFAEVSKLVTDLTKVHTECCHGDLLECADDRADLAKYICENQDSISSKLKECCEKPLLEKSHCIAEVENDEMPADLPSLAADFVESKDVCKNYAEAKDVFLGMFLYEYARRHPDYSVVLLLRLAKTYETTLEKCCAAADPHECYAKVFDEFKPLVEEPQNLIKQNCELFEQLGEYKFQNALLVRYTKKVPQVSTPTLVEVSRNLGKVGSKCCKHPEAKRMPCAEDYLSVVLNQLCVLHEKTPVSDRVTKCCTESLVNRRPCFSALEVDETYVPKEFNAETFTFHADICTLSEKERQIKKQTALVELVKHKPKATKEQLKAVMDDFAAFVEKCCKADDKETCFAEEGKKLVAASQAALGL
Description: (§2) Integrated heat effects, after correction for heats of dilution, were analyzed by non-linear regression using a simple single-site binding model with the standard Microcal ORIGIN software package. Raw data (μcal/sec) for each injection were integrated to give the total heat effect per addition, then divided by amount of injectant to give kcal/mole of injectant. The same integration was applied for control dilution effects, and this was subtracted from the actual titration data. This provided a differential of the binding curve in which the extent of binding is proportional to the total heat liberated (or absorbed). This was then analyzed by non-linear regression methods in terms of various standard binding models. The simplest model assumes simple non-competitive binding equilibrium, and gives three parameters:

[9] = test system: human α-glycoprotein; conditions: pH 7.4
Description: as §2

[10] = test system: hepatic cytochrome P450 isoenzymes
[11] = Rat mass balance study; conditions: rats
Description: Excreta and more than 40 different tissues were collected through 70 days post-administration, and the tissue distribution and pharmacokinetics of drug-derived radioactivity were determined.
Following dose administration, urine and feces were collected at 24 hour intervals to 14, 36, and 70 days after the dose (3 rats/final collection time). Water and methanol cage washes were also collected. Carcasses were analyzed at the end of the collection period. All samples were analyzed for total radioactivity content by liquid scintillation counting (LSC).

CN[C@H]1C(=O)N[C@@H]2Cc3ccc(cc3)Oc3cc4cc(c3O[C@@H]3O[C@H](C(=O)O)[C@@H](O)[C@H](O)[C@H]3NC(=O)CCCCCCCCC(C)C)Oc3ccc(cc3Cl)[C@@H](O)[C@@H]3NC(=O)[C@H](NC(=O)[C@@H]4NC(=O)[C@@H](NC2=O)c2cc(cc(O)c2Cl)Oc2cc1ccc2O)c1ccc(O)c(c1)-c1c(O[C@H]2O[C@H](CO)[C@@H](O)[C@H](O)[C@@H]2O)cc(O)cc1[C@@H](C(=O)NCCCN(C)C)NC3=O [Dalbavancin]
MIC ([1]; L 149 E faecalis): 0.06 µg/mL (≈ 0.033 µM) | MIC ([1]; L 562 E faecalis clin. isolate): > 32 µg/mL | MIC [2]: < 0.03 µg/mL | MIC [3]: > 32 µg/mL | Clinical Success Rate ([4]; Clinically evaluable at EOT, Single-dose (1100 mg)): 13/16 (61.5) % | Clinical Success Rate ([4]; Clinically evaluable at EOT, Two-dose (1000/500 mg)): 16/17 (94.1) % | Clinical Success Rate ([4]; Clinically evaluable at FU, Single-dose (1100 mg)): 8/13 (61.5) % | Clinical Success Rate ([4]; Clinically evaluable at FU, Two-dose (1000/500 mg)): 16/17 (94.1) % | Clinical Success Rate ([4]; ITT at EOT, Single-dose (1100 mg)): 15/20 (75.0) % | Clinical Success Rate ([4]; ITT at EOT, Two-dose (1000/500 mg)): 19/21 (90.5) % | Clinical Success Rate ([4]; ITT at FU, Single-dose (1100 mg)): 12/20 (60.0) % | Clinical Success Rate ([4]; ITT at FU, Two-dose (1000/500 mg)): 19/21 (90.5) % | Clinical Success Rate ([4]; MITT at EOT, Single-dose (1100 mg)): 10/14 (71.4) % | Clinical Success Rate ([4]; MITT at EOT, Two-dose (1000/500 mg)): 12/13 (92.3) % | Clinical Success Rate ([4]; MITT at FU, Single-dose (1100 mg)): 7/14 (50.0) % | Clinical Success Rate ([4]; MITT at FU, Two-dose (1000/500 mg)): 12/13 (92.3) % | Clinical Success Rate ([4]; MITT population with MRSA, FU assessment, single-dose): 50% | Clinical Success Rate ([4]; MITT population with MRSA, FU assessment, two-dose): 80% | Clinical Success Rate ([4]; Microbiologically evaluable at EOT, Single-dose (1100 mg)): 10/13 (76.9) % | Clinical Success Rate ([4]; Microbiologically evaluable at EOT, Two-dose (1000/500 mg)): 10/11 (90.9) % | Clinical Success Rate ([4]; Microbiologically evaluable at FU, Single-dose (1100 mg)): 6/11 (54.5) % | Clinical Success Rate ([4]; Microbiologically evaluable at FU, Two-dose (1000/500 mg)): 10/11 (90.9) % | Clinical Success Rate ([4]; clinically-evaluable population, FU assessment, single-dose: 1100 mg IV day 1): 61.5% | Clinical Success Rate ([4]; clinically-evaluable population, FU assessment, two-dose: 1 g IV day 1 + 500 mg IV day 8): 94.1% and 94% | S. aureus eradication rate ([5]; FU, single-dose): 50% | S. aureus eradication rate ([5]; FU, two-dose): 90% | Microbiologic Success Rate ([5]; MITT population, EOT, Single-dose (1100 mg)): 5/14 (35.7) % | Microbiologic Success Rate ([5]; MITT population, EOT, Two-dose (1000/500 mg)): 10/13 (76.9) % | Microbiologic Success Rate ([5]; MITT population, FU, Single-dose (1100 mg)): 3/14 (21.4) % | Microbiologic Success Rate ([5]; MITT population, FU, Two-dose (1000/500 mg)): 9/13 (69.2) % | MRSA eradication rate ([5]; MITT population, single-dose): 50% | MRSA eradication rate ([5]; MITT population, two-dose): 80% | Success Rate by Pathogen ([5]; Methicillin-resistant S. aureus, Single-dose (1100 mg)): 3/6 (50%) | Success Rate by Pathogen ([5]; Methicillin-resistant S. aureus, Two-dose (1000/500 mg)): 4/5 (80%) | Microbiologic Success Rate ([5]; Microbiologically evaluable population, EOT, Single-dose (1100 mg)): 5/13 (38.5) % | Microbiologic Success Rate ([5]; Microbiologically evaluable population, EOT, Two-dose (1000/500 mg)): 8/11 (72.7) % | Microbiologic Success Rate ([5]; Microbiologically evaluable population, FU, Single-dose (1100 mg)): 3/11 (27.3) % | Microbiologic Success Rate ([5]; Microbiologically evaluable population, FU, Two-dose (1000/500 mg)): 8/11 (72.7) % | Success Rate by Pathogen ([5]; Total organisms, Two-dose (1000/500 mg)): 14/16 (87.5%)^ | microbiologic success rates ([5]; both visits (EOT and FU), single dose): < 40% | Microbiologic Success Rate ([5]; microbiologically-evaluable population, EOT, single-dose): 38.5% | Microbiologic Success Rate ([5]; microbiologically-evaluable population, EOT, two-dose): 72.7% | eradication/presumed eradication rate, all organisms ([5]; microbiologically-evaluable population, single-dose): 58% | eradication/presumed eradication rate, all organisms ([5]; microbiologically-evaluable population, two-dose): 92% | Microbiologic Success Rate ([5]; microbiologically-evaluable population, FU, single-dose): 27.3% | Microbiologic Success Rate ([5]; microbiologically-evaluable population, FU, two-dose): 72.7% | t1/2 ([6]; Max): 11.8 days | t1/2 ([6]; Min): 9.46 days | peak concentration ([6]; both, human, in vivo): ~165 µM | average difference of effect on QTc values ([7]; human): 7 ms | patients with AEs that led to discontinuation of study drug ([7]; human): 3% | SAE considered to be related to study drug [7]: no SAE | Calculated percent Binding ([8]; 1 μM): 98.8% | Calculated percent Binding ([8]; 10 μM): 98.8% | Calculated percent Binding ([8]; 100 μM): 98.7% | Calculated percent Binding ([8]; 165 μM): 98.6% | Calculated percent Binding ([8]; 250 μM): 98.5% | Calculated percent Binding ([8]; 500 μM): 98.0% | Calculated percent Binding ([9]; 1 μM): 73.0% | Calculated percent Binding ([9]; 10 μM): 68.2% | Calculated percent Binding ([9]; 100 μM): 26.2% | Calculated percent Binding ([9]; 165 μM): 16.9% | Calculated percent Binding ([9]; 250 μM): 11.4% | Calculated percent Binding ([9]; 500 μM): 5.9% | metabolism in vitro [10]: not metabolized | substrate, inhibitor, or inducer of hepatic cytochrome P450 isoenzymes [10]: not a substrate, inhibitor, or inducer | plasma t1/2 [11]: approximately 1 week
